Laboratory results as given in US9827235B2, “Pharmaceutical compositions comprising antibacterial agents” (WOCKHARDT LIMITED, priority 2013, dated 2017).
Read-outs that look alike come from different tables or passages of the source.

Columns and labels:
Type in all cases: cell-based
K. pneumoniae B 77 = experiment: MIC on Muller Hinton Agar (CLSI); conditions: for MIC: enzymes SHV, TEM
Experimental: (§1) The antibacterial activity of combinations according to the invention was investigated against various bacterial strains. In a typical study, minimum inhibitory concentrations (MIC) were determined using Muller Hinton Agar (MHA) (BD, USA) according to Clinical and Laboratory Standards Institute (CLSI) recommendations, (Clinical and Laboratory Standards Institute (CLSI), Performance Standards for Antimicrobial Susceptibility Testing, 20th Informational Supplement, M 100-S20, Volume 30, No. 1, 2010). In short, the inocula were adjusted to deliver about 10^4 colony forming units (CFU) per spot with a multipoint inoculator (Applied Quality Services, UK). The plates were pored with doubling concentration range of the test combinations according to invention containing MHA. The plates were inoculated and were incubated at 35° C. for 18 hours.

E. coli S 35 = experiment: MIC on Muller Hinton Agar (CLSI); conditions: for MIC: enzymes TEM
Experimental: as §1

P. aeruginosa S 508 = experiment: MIC on Muller Hinton Agar (CLSI)
Experimental: as §1

K. pneumoniae S 48 = experiment: MIC on Muller Hinton Agar (CLSI); conditions: for MIC: enzymes SHV, TEM
Experimental: as §1

K. pneumoniae S 50 = experiment: MIC on Muller Hinton Agar (CLSI); conditions: for MIC: enzymes SHV, TEM
Experimental: as §1

P. aeruginosa Q-111 = experiment: MIC on Muller Hinton Agar (CLSI)
Experimental: as §1

E. coli S 33 = experiment: MIC on Muller Hinton Agar (CLSI); conditions: for MIC: enzymes TEM
Experimental: as §1

[1] = tested on: P. aeruginosa H 113720186; experiment: MIC on Muller Hinton Agar (CLSI); conditions: for MIC: enzymes IMP
Experimental: as §1

K. pneumoniae M 3 = experiment: MIC on Muller Hinton Agar (CLSI); conditions: for MIC: enzymes SHV, CTXM, TEM
Experimental: as §1

P. aeruginosa S 513 = experiment: MIC on Muller Hinton Agar (CLSI)
Experimental: as §1

E. coli M 44 = experiment: MIC on Muller Hinton Agar (CLSI); conditions: for MIC: enzymes TEM
Experimental: as §1

E. coli S 16 = experiment: MIC on Muller Hinton Agar (CLSI); conditions: for MIC: enzymes CMY type, TEM, DHA
Experimental: as §1

P. aeruginosa S 504 = experiment: MIC on Muller Hinton Agar (CLSI)
Experimental: as §1

K. pneumoniae B 88 = experiment: MIC on Muller Hinton Agar (CLSI); conditions: for MIC: enzymes SHV, TEM
Experimental: as §1

E. coli S 30 = experiment: MIC on Muller Hinton Agar (CLSI); conditions: for MIC: enzymes CMY type, TEM
Experimental: as §1

[2] = tested on: highly resistant strains of E. coli, K. pneumonia and P. aeruginosa; experiment: MIC, summary over the strain panel; conditions: for MICs (range over the strains): agent alone
Experimental: as §1

E. coli S 330 = experiment: MIC on Muller Hinton Agar (CLSI); conditions: for MIC: Escherichia coli, S330, agent alone, enzymes NDM, read-out: MIC
Experimental: as §1

K. pneumoniae NCTC 13439 = experiment: MIC on Muller Hinton Agar (CLSI); conditions: for MIC: Klebsiella pneumoniae, NCTC13439, agent alone, enzymes VIM-1, read-out: MIC
Experimental: as §1

[3] = tested on: clinical isolate of K. pneumoniae B 88 producing metallo beta-lactamases [SHV, TEM, NDM-1]; experiment: Time kill study; conditions: for Bacterial count: each agent at 8 mcg/ml, initial count 6.18 log CFU/ml; for Change in bacterial count (in words): used alone at 8 mcg/ml, at the end of 6 hours
Experimental: (§2) Typically, freshly grown cultures were diluted to the required cell density (initial starting inoculum) in Cation adjusted Muller Hinton broth medium BD, USA). The antibacterial agents at the required concentrations were added into the culture-containing medium either alone or in combination. The samples were incubated under shaking condition (120 rpm) at 37° C. Enumeration of viable bacterial count was undertaken, every 2 hour, by diluting in normal saline and plating on to the Tryptic Soya Agar plates (BD, USA). The plates were incubated for 24 hours to arrive at the viable bacterial count. […] The decrease of 1 Log CFU/ml, after administration of combination of present invention, in comparison to initial bacterial count corresponds to 90% killing of bacteria. Similarly, 2 Log CFU/ml reductions corresponds to 99% killing of bacteria and 3 Log CFU/ml reductions is equal to 99.9% killing of bacteria.

[4] = tested on: clinical isolate of K. pneumoniae S 48 producing metallo beta-lactamases [SHV, TEM, NDM-1]; experiment: Time kill study; conditions: for Bacterial count: each agent at 8 mcg/ml, initial count 6.84 log CFU/ml
Experimental: as §2

[5] = Klebsiella pneumoniae, B77, agent alone, NDM-1, read-out: MIC
[6] = Escherichia coli, S35, agent alone, NDM-1, read-out: MIC
[7] = Pseudomonas aeruginosa, S508, agent alone, enzymes VIM-11, read-out: MIC
[8] = Klebsiella pneumoniae, S48, agent alone, NDM-1, read-out: MIC
[9] = Klebsiella pneumoniae, S50, agent alone, NDM-1, read-out: MIC
[10] = Pseudomonas aeruginosa, Q111, agent alone, enzymes OXA-4, OXA-11, read-out: MIC
[11] = Escherichia coli, S33, agent alone, NDM-1, read-out: MIC
[12] = Pseudomonas aeruginosa, H113720186, agent alone, read-out: MIC
[13] = Klebsiella pneumoniae, M3, agent alone, NDM-1, read-out: MIC
[14] = Pseudomonas aeruginosa, S513, agent alone, enzymes VIM-6, read-out: MIC
[15] = Escherichia coli, M44, agent alone, NDM-1, read-out: MIC
[16] = Escherichia coli, S16, agent alone, read-out: MIC
[17] = Pseudomonas aeruginosa, S504, agent alone, enzymes VIM-6, read-out: MIC
[18] = Klebsiella pneumoniae, B88, agent alone, NDM-1, read-out: MIC
[19] = Escherichia coli, S30, agent alone, NDM-1, read-out: MIC

Row | Compound | MIC (K. pneumoniae B 77; [5]) [µg/mL] | MIC (E. coli S 35; [6]) [µg/mL] | MIC (P. aeruginosa S 508; [7]) [µg/mL] | MIC (K. pneumoniae S 48; [8]) [µg/mL] | MIC (K. pneumoniae S 50; [9]) [µg/mL] | MIC (P. aeruginosa Q-111; [10]) [µg/mL] | MIC (E. coli S 33; [11]) [µg/mL] | MIC (E. coli S 330) [µg/mL] | MIC [1, 12] [µg/mL] | MIC (K. pneumoniae M 3; [13]) [µg/mL] | MIC (P. aeruginosa S 513; [14]) [µg/mL] | MIC (E. coli M 44; [15]) [µg/mL] | MIC (E. coli S 16; [16]) [µg/mL] | MIC (K. pneumoniae NCTC 13439) [µg/mL] | MIC (P. aeruginosa S 504; [17]) [µg/mL] | MIC (K. pneumoniae B 88; [18]) [µg/mL] | MIC (E. coli S 30; [19]) [µg/mL] | Bacterial count ([3]; 2 hours) [Log CFU/ml] | Bacterial count ([3]; 4 hours) [Log CFU/ml] | Bacterial count ([3]; 6 hours) [Log CFU/ml] | also measured
1 | colistin | – | – | – | – | – | – | – | – | – | – | – | – | – | – | – | – | – | – | – | – | MIC (K. pneumoniae B 77; agent alone, NDM-1): 1 µg/mL; MIC (E. coli S 35; agent alone, NDM-1): 1 µg/mL; MIC (P. aeruginosa S 508; agent alone, enzymes VIM-11): 2 µg/mL; MIC (K. pneumoniae S 48; agent alone, NDM-1): 1 µg/mL; MIC (K. pneumoniae S 50; agent alone, NDM-1): 1 µg/mL; MIC (P. aeruginosa Q-111; agent alone, enzymes OXA-4, OXA-11): 2 µg/mL; MIC (E. coli S 33; agent alone, NDM-1): 1 µg/mL; MIC ([1]; agent alone): 2 µg/mL; MIC (K. pneumoniae M 3; agent alone, NDM-1): 1 µg/mL; MIC (P. aeruginosa S 513; agent alone, enzymes VIM-6): 2 µg/mL; MIC (E. coli M 44; agent alone, NDM-1): 1 µg/mL; MIC (E. coli S 16; agent alone): 1 µg/mL; MIC (P. aeruginosa S 504; agent alone, enzymes VIM-6): 2 µg/mL; MIC (K. pneumoniae B 88; agent alone, NDM-1): 1 µg/mL; MIC (E. coli S 30; agent alone, NDM-1): 0.5 µg/mL; MICs (range over the strains) ([2]; resistant strains of E. coli, K. pneumonia and P. aeruginosa): 0.5 to 2 µg/mL
2 | NCC[C@H](O)C(=O)N[C@@H]1C[C@H](N)[C@@H](O[C@H]2O[C@H](CN)[C@@H](O)[C@H](O)[C@H]2O)[C@H](O)[C@H]1O[C@H]1O[C@H](CO)[C@@H](O)[C@H](N)[C@H]1O [Amikacin, amikacin] | > 64 | > 64 | > 32 | > 64 | > 64 | 16 | > 64 | > 64 | > 32 | 4 | > 32 | > 64 | > 64 | > 64 | > 32 | > 64 | > 64 | – | – | – | –
3 | C[C@@H](O)[C@H]1C(=O)N2C(C(=O)O)=C(S[C@@H]3CN[C@H](C(=O)N(C)C)C3)[C@H](C)[C@H]12 [Meropenem, meropenem] | > 32 | > 32 | > 32 | 32 | > 32 | 4 | > 32 | > 32 | > 64 | 16 | > 32 | 32 | > 32 | > 32 | > 32 | > 32 | > 32 | 6.02 | 6.3 | 7.6 | Change in bacterial count (in words) [3]: no decrease in bacterial count was observed
4 | CC(C)(O/N=C(\C(=O)N[C@@H]1C(=O)N2C(C(=O)[O-])=C(C[n+]3ccccc3)CS[C@H]12)c1csc(N)n1)C(=O)O [ceftazidine, ceftazidime] | – | – | – | – | – | – | – | – | – | – | – | – | – | – | – | – | – | – | – | – | MIC (mcg/ml) of ceftazidine in presence of avibactam (4 mcg/ml) (K. pneumoniae B 77; with avibactam at 4 mcg/ml): >16 µg/mL; MIC (mcg/ml) of ceftazidine in presence of avibactam (4 mcg/ml) (E. coli S 35; with avibactam at 4 mcg/ml): >16 µg/mL; MIC (mcg/ml) of ceftazidine in presence of avibactam (4 mcg/ml) (P. aeruginosa S 508; with avibactam at 4 mcg/ml): >16 µg/mL; MIC (mcg/ml) of ceftazidine in presence of avibactam (4 mcg/ml) (K. pneumoniae S 48; with avibactam at 4 mcg/ml): >16 µg/mL; MIC (mcg/ml) of ceftazidine in presence of avibactam (4 mcg/ml) (K. pneumoniae S 50; with avibactam at 4 mcg/ml): >16 µg/mL; MIC (mcg/ml) of ceftazidine in presence of avibactam (4 mcg/ml) (P. aeruginosa Q-111; with avibactam at 4 mcg/ml): 32 µg/mL; MIC (mcg/ml) of ceftazidine in presence of avibactam (4 mcg/ml) (E. coli S 33; with avibactam at 4 mcg/ml): >16 µg/mL; MIC (mcg/ml) of ceftazidine in presence of avibactam (4 mcg/ml) (E. coli S 330; with avibactam at 4 mcg/ml): >16 µg/mL; MIC (mcg/ml) of ceftazidine in presence of avibactam (4 mcg/ml) ([1]; with avibactam at 4 mcg/ml): >32 µg/mL; MIC (mcg/ml) of ceftazidine in presence of avibactam (4 mcg/ml) (K. pneumoniae M 3; with avibactam at 4 mcg/ml): >16 µg/mL; MIC (mcg/ml) of ceftazidine in presence of avibactam (4 mcg/ml) (P. aeruginosa S 513; with avibactam at 4 mcg/ml): >16 µg/mL; MIC (mcg/ml) of ceftazidine in presence of avibactam (4 mcg/ml) (E. coli M 44; with avibactam at 4 mcg/ml): >16 µg/mL; MIC (mcg/ml) of ceftazidine in presence of avibactam (4 mcg/ml) (E. coli S 16; with avibactam at 4 mcg/ml): >16 µg/mL; MIC (mcg/ml) of ceftazidine in presence of avibactam (4 mcg/ml) (K. pneumoniae NCTC 13439; with avibactam at 4 mcg/ml): >16 µg/mL; MIC (mcg/ml) of ceftazidine in presence of avibactam (4 mcg/ml) (P. aeruginosa S 504; with avibactam at 4 mcg/ml): >16 µg/mL; MIC (mcg/ml) of ceftazidine in presence of avibactam (4 mcg/ml) (K. pneumoniae B 88; with avibactam at 4 mcg/ml): >16 µg/mL; MIC (mcg/ml) of ceftazidine in presence of avibactam (4 mcg/ml) (E. coli S 30; with avibactam at 4 mcg/ml): >16 µg/mL; MIC values of ceftazidime in presence of avibactam ([2]; with avibactam at 4 mcg/ml, in most of the cases): more than 16 mcg/ml
5 | C[C@@H](O)[C@H]1C(=O)N2C(C(=O)O)=C(SCCN=CN)C[C@H]12 [Imipenem, imipenem] | – | – | – | – | – | – | – | – | – | – | – | – | – | – | – | – | – | – | – | – | Bacterial count ([4]; 2 hours): 7.38 Log CFU/ml; Bacterial count ([4]; 4 hours): 8.32 Log CFU/ml; Bacterial count ([4]; 6 hours): 8.81 Log CFU/ml
6 | O=C(NNC(=O)[C@@H]1CC[C@@H]2CN1C(=O)N2OS(=O)(=O)O)[C@@H]1CCCNC1 [Compound of Formula (I), (2S,5R)-sulphuric acid mono-[2-(N′—[(R)-piperidin-3-carbonyl]-hydrazinocarbonyl)-7-oxo-1,6-diaza-bicyclo[3.2.1]oct-6-yl] ester] | > 32 | 0.25 | 8 | 0.5 | 0.5 | 4 | 0.25 | 0.12 | 8 | 0.5 | 8 | 0.12 | 0.25 | > 32 | 8 | > 32 | 0.25 | 6.4 | 6.08 | 6.28 | MICs (range over the strains) ([2]; most strains of E. coli and K. pneumoniae): 0.1 to 0.5 µg/mL; Change in bacterial count (in words) [3]: no decrease in bacterial count was observed; Bacterial count ([4]; 2 hours): 7.27 Log CFU/ml; Bacterial count ([4]; 4 hours): 7.04 Log CFU/ml; Bacterial count ([4]; 6 hours): 7.45 Log CFU/ml; Change in bacterial count (in words) ([4]; used alone at 8 mcg/ml, at the end of 6 hours): no decrease in bacterial count was observed
